This note sets out measurements from PMC7177638 (International Journal of Molecular Sciences, 2020).

Data set [1] in a line: Cyclic voltammetry, cathodic reduction potential in aqueous solution. Format: physicochemical. As to conditions: values normalized vs. SCE; phosphate buffer pH 7.4, 5 mM NaCl, 5·10^−4 M complex, scan rate 0.020 V s^−1. Here is the method: The electrochemical characterization of compounds 1–6, performed by using cyclic voltammetry (CV), was carried out with the aim of determining the cathodic reduction potentials in aqueous solution (Ep^c).
Cyclic voltammetry (CV) measurements were carried out with a potentiostat CHI 1230B (CH Instruments, Inc., Austin, TX, USA) in a standard three-electrode electrochemical cell. The working electrode was a glassy carbon (GC) electrode, the reference electrode was a KCl-saturated Ag/AgCl and the counter was a Pt sheet. The GC electrode was carefully polished with alumina powder, then rinsed with distilled water and dried, to obtain a reproducible surface for all the experiments. All the measurements, conducted in triplicate, were carried out in buffered aqueous solutions containing the Pt(IV) compound at a concentration of 5·10^−4 M in 10 mL phosphate buffer (PB, pH = 7.4, I = 0.1) and 5 mM NaCl as supporting electrolyte. A blank solution (without Pt(IV) complex) was also tested. All the peak potentials were measured with a scan rate of 0.020 V s^−1; the initial potential was chosen equal to the open-circuit potential and the scan direction was negative. All the CV plots were acquired after an equilibration time of 2 min in order to make the GC surface reproducible.

For data set [2], the system named is 2008 human ovarian cancer cells. Briefly: MTT cytotoxicity test, 72 h. Format: cell-based. The settings on record: 2008, MTT. Here is the method:
(§1) The in vitro cytotoxic activities of compounds 1–6 were assayed on a panel of human cancer cell lines containing examples of pancreatic (PSN-1), colon (HCT-15 and LoVo), cervical (A431), and ovarian (2008) cancers. Cisplatin and oxaliplatin were used as reference compounds and were tested under the same experimental conditions.
(§2) Human colon (HCT-15 and LoVo) and pancreatic (PSN-1) carcinoma cell lines were obtained from the American Type Culture Collection (ATCC, RocKville, MD). The 2008 human ovarian cancer cells were kindly provided by Prof. G. Marverti (Dept. of Biomedical Science of Modena University, Italy). Human cervical carcinoma (A431) cells were kindly provided by Prof. F. Zunino (Division of Experimental Oncology B, Istituto Nazionale dei Tumori, Milan, Italy). […] Cell lines were maintained in the logarithmic phase at 37 °C in a 5% carbon dioxide atmosphere using RPMI-1640 or F-12 culture medium (Euroclone) containing 10% fetal calf serum (Euroclone, Milan, Italy), antibiotics (50 units per mL penicillin and 50 μg mL^−1 streptomycin), and 2 mM L-glutamine.
(§3) The growth inhibitory effect toward the tumor cell lines was evaluated by the MTT test. Briefly, 3-8·10^3 cells/well, depending upon the growth characteristics of the cell lines, were seeded in 96-well microplates in growth medium (100 µL) and then incubated at 37 °C in a 5% carbon dioxide atmosphere. After 24 h, the medium was removed and replaced with a fresh one containing the compound to be tested at the appropriate concentration. Triplicate cultures were established for each treatment. After 72 h, each well was treated with 10 µL of a 5 mg·mL^−1 MTT (3-(4,5-dimethylthiazol-2-yl)-2,5-diphenyltetrazolium bromide) saline solution and, after 5 h of incubation, 100 µL of a sodium dodecylsulfate (SDS) solution in HCl 0.01 M were added. Following an overnight incubation, the inhibition of cell growth induced by the tested complexes was evaluated by measuring the absorbance of each well at 570 nm using a Bio-Rad 680 microplate reader (Bio-Rad Laboratories S.r.l., Segrate (MI), Italy).
A general note: Formazan colour is commonly taken as a measure of viable cells.

Data set [3] deals with A431 human cervical carcinoma cells. Briefly: MTT cytotoxicity test, 72 h. Format: cell-based. Here is the method:
as §1, §2, §3

Data set [4] relates to HCT-15 human colon carcinoma cells. The data set can be described thus: MTT cytotoxicity test, 72 h. In kind it is cell-based. The settings on record: HCT-15, MTT. Here is the method: as §1, §2, §3
Data set [5] has as its system LoVo human colon carcinoma cells. Briefly: MTT cytotoxicity test, 72 h. Format: cell-based. Here is the method:
as §1, §2, §3

Data set [6] concerns PSN-1 human pancreatic carcinoma cells. Briefly: MTT cytotoxicity test, 72 h. In kind it is cell-based. As to conditions: PSN-1, MTT. Here is the method:
as §1, §2, §3

Data set [7] deals with LoVo-OXP cancer cells. The data set can be described thus: MTT cytotoxicity test, 72 h, oxaliplatin-resistant cells. The settings on record: for IC50: LoVo OXP. In kind it is cell-based, human.
Description: as §2, §3

For data set [8], the system named is human A431 cancer cell spheroids. Briefly: Cytotoxicity towards 3D spheroids, acid phosphatase (APH) assay. In kind it is cell-based. As to conditions: A431 3D spheroids, 72 h; for IC50: APH assay. The source says:
The remarkable cell-killing effect observed against human A431 squamous cervical carcinoma two-dimensional (2D) cultured cells prompted us to evaluate the in vitro antitumor activity of compounds 1–6 on three-dimensional (3D) cell cultures. As opposed to 2D monolayer cultures, cells growing in 3D culture systems form spheroids that comprise cells in various stages. […] Such cellular heterogeneity resembles that of in vivo tumors, making 3D cell cultures more predictive than conventional 2D monolayer cultures in screening antitumor drugs.
Spheroid cultures were obtained by seeding 2.5 × 10^3 A431 cancer cells/well in a round bottom non-treated tissue culture 96 well-plate (Greiner Bio-one, Kremsmünster, Austria) in phenol red free RPMI-1640 medium (Sigma Chemical Co.) containing 10% fetal calf serum (FCS) and supplemented with 20% methyl cellulose stock solution.
An APH modified assay was used for determining cell viability in 3D spheroids, as previously described. IC50 values were calculated with a four parameter logistic (4-PL) model.

In data set [9] the test system is A431 cells. The data set can be described thus: Cellular accumulation of Pt (GF-AAS). In kind it is cell-based, human. The settings on record: 24 h, 0.5 μM. Here is the method: It is clearly recognized that the antitumor activity of platinum-based anticancer drugs depends on the ability of compounds to accumulate into cancer cells and to bind to nuclear DNA, thus inducing transcription inhibition and cell death. Therefore, we investigated the cellular uptake as well as the DNA binding ability of 1–6 in human A431cervical cancer cells. Cells were treated for 24 h with 0.5 μM of 1–6 or CDDP and the total cellular and DNA-bound platinum contents were quantified using GF–AAS analysis. The results, expressed as ng of metal per 10^6 cells, in the case of cellular uptake (A) and as pg of metal per μg of DNA, in the case of DNA-bound platinum (B) are summarized in Figure 9.
A431 cells (2·10^6) were seeded in 75 cm^2 flasks in growth medium (20 mL). After 24 h, the medium was replaced and the cells incubated for 24 h in the presence of the tested complexes.
Cells monolayers were washed twice with cold phosphate-buffered saline (PBS), harvested, and counted. Samples were subjected to three freeze–thaw cycles at −80 °C, and then vigorously vortexed. The samples were treated with highly pure nitric acid (1 mL; Pt ≤ 0.01 mg kg^−1, Trace-SELECT Ultra, Sigma Chemical Co.) and transferred into a microwave Teflon vessel. Subsequently, samples were submitted to standard mineralization procedures. Samples were analyzed for platinum by using a Varian AA Duo graphite furnace atomic absorption spectrometer (Varian, Palo Alto, CA; USA) at a wavelength of […]. The calibration curve was obtained using known concentrations of standard solutions purchased from Sigma Chemical Co.

For `CC(=O)[O][Pt]1([Cl])[O]C(=O)C(=O)[O]1.NC1CC=CCC1N` (racemic) [Complex 5, cis,trans,cis-[Pt(OXA)(AcO)Cl(DACHEX)]], in [1], the “Cathodic reduction potential Ep^c” value is given as −0.82 V. In addition, the IC50 was 930 ± 300 nM in [2]; 1510 ± 600 nM in data set [3]; 1970 ± 400 nM in data set [4]; 250 ± 50 nM in [5]; 3580 ± 1400 nM in data set [6]; greater than 2000 nM in data set [7]. Besides, the IC50 in [8] was determined as 26400 ± 5500 nM. In [9], the “cellular uptake (cellular internalization of Pt), in words” value (from here on “cellular uptake”) was “the worst in crossing the cell plasmalemma”.
Take `NC1CC=CCC1N.O=C1[O][Pt]([OH])([Cl])[O]C1=O` (racemic) [Complex 6, cis,trans,cis-[Pt(OXA)(OH)Cl(DACHEX)]]: in [1], the “Cathodic reduction potential Ep^c” value is −0.48 V. The IC50 in data set [2] is 1870 ± 400 nM; in data set [3], 1310 ± 700 nM; in data set [4], 1670 ± 400 nM; in [5], 660 ± 20 nM; in data set [6], 5250 ± 1200 nM; in [7], greater than 2000 nM. In [8], this molecule returned an IC50 of 30200 ± 3800 nM. Also, the “cellular uptake” value in data set [9] was “the worst in crossing the cell plasmalemma”.
For the molecule `NC1CC=CCC1N.O=C([O-])C(=O)[O-].O=C([O-])c1ccccc1.O=C([O-])c1ccccc1.[Pt+4]` (mixture of isomers) [Complex 3, cis,trans,cis-[Pt(OXA)(BzO)2(DACHEX)]], in data set [1], the “Cathodic reduction potential Ep^c” value was −0.99 V. Further, the IC50 was 140 ± 30 nM in data set [2]; 160 ± 70 nM in [3]; 410 ± 100 nM in [4]; 70 ± 20 nM in [5]; 540 ± 300 nM in [6]; 90 ± 20 nM in data set [7]. The molecule also yielded an IC50 in data set [8] of 1800 ± 400 nM. Also, the “effectiveness against sensitive (LoVo) versus resistant (LoVo-OXP) cells” value in [7] is recorded as “equally effective”. The “efficacy in decreasing cancer spheroid viability, times higher than CDDP” value in [8] is recorded as “about 32”. Further, the “efficacy in decreasing cancer spheroid viability, times higher than OXP” value in data set [8] is on record as roughly 20. The “cellular uptake” value in [9] is given as “the most effective in entering cancer cells”.

A word on the IC50: it is the point on the concentration scale where inhibition reaches its midpoint. A higher IC50 goes with a need for much substance.
